Results taken from the supplement of paper PMC10627819.

Assays:
Conditions in all cases: main component drawn
S. aureus Newman [1] = assay: fitness (endpoint OD595 vs no drug) (fraction); higher = more growth
Method in brief: (§1)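 Growth medium was TSB, LB Lennox or CY, and plates were kept at 37 °C. Inoculation was at OD595 0.01 in 384-well plates, at 30 µl per well or 55 µl for S. pneumoniae. OD595 was monitored every 30 min for 14 h and background-subtracted using the first reading. Fitness is the optical density on entering stationary phase divided by the robust mean of no-drug controls, with values capped at 1.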

S. pneumoniae D39V [2] = assay: as above
Method in brief: as §1

B. subtilis 168 = assay: Bliss interaction score (quartile over a dose matrix) (fitness difference); higher = more antagonism (negative = synergy)
Method in brief: (§2)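 Quartiles summarise the Bliss score over technical, biological and donor/recipient replicates, where the score is observed minus expected fitness under a product model. Expected fitness uses single-drug values inferred from combination data. Fitness is OD595 at entry into stationary phase over the plate's robust no-drug mean, capped at 1.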

S. aureus DSM 20231 = assay: as above
Method in brief: as §2

S. aureus Newman [3] = assay: as above
Method in brief: as §2

S. pneumoniae D39V [4] = assay: as above
Method in brief: as §2

[5] = first compound 2 µg/mL, partner 0.03125 µg/mL
[6] = first compound 2 µg/mL, partner 0.0625 µg/mL
[7] = first compound 2 µg/mL, partner 0.125 µg/mL
[8] = first compound 2 µg/mL, partner 0.25 µg/mL
[9] = first compound 2 µg/mL, partner 0.5 µg/mL
[10] = first compound 4 µg/mL, partner 0.03125 µg/mL
[11] = first compound 4 µg/mL, partner 0.0625 µg/mL
[12] = first compound 4 µg/mL, partner 0.25 µg/mL
[13] = first compound 4 µg/mL, partner 0.5 µg/mL
[14] = first compound 8 µg/mL, partner 0.03125 µg/mL
[15] = first compound 8 µg/mL, partner 0.0625 µg/mL
[16] = first compound 8 µg/mL, partner 0.25 µg/mL
[17] = first compound 8 µg/mL, partner 0.5 µg/mL
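Throughout, for Bliss interaction score (quartile over a dose matrix): first quartile when negative (synergy) and third quartile when positive (antagonism).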

Row | SMILES | fitness (S. pneumoniae D39V [2]; [5]) | fitness (S. pneumoniae D39V [2]; [6]) | fitness (S. pneumoniae D39V [2]; [7]) | fitness (S. pneumoniae D39V [2]; [8]) | fitness (S. pneumoniae D39V [2]; [9]) | fitness (S. pneumoniae D39V [2]; [10]) | fitness (S. pneumoniae D39V [2]; [11]) | fitness (S. pneumoniae D39V [2]; [12]) | fitness (S. pneumoniae D39V [2]; [13]) | fitness (S. pneumoniae D39V [2]; [14]) | fitness (S. pneumoniae D39V [2]; [15]) | fitness (S. pneumoniae D39V [2]; [16]) | fitness (S. pneumoniae D39V [2]; [17]) | Bliss interaction score (B. subtilis 168) | Bliss interaction score (S. aureus DSM 20231) | Bliss interaction score (S. aureus Newman [3]) | Bliss interaction score (S. pneumoniae D39V [4]) | further results
1 | CNC(C)C1CCC(N)C(OC2C(N)CC(N)C(OC3OCC(C)(O)C(NC)C3O)C2O)O1 (stereo not drawn) [Gentamicin] + CN[C@H](CC(C)C)C(=O)N[C@H]1C(=O)N[C@@H](CC(N)=O)C(=O)N[C@H]2C(=O)N[C@H]3C(=O)N[C@H](C(=O)N[C@H](C(=O)O)c4cc(O)cc(O)c4-c4cc3ccc4O)[C@H](O)c3ccc(c(Cl)c3)Oc3cc2cc(c3O[C@@H]2O[C@H](CO)[C@@H](O)[C@H](O)[C@H]2O[C@H]2C[C@](C)(N)[C@H](O)[C@H](C)O2)Oc2ccc(cc2Cl)[C@H]1O [Vancomycin] | 0.974 | 0.949 | 0.891 | 0.0786 | 0.0666 | ≥ 1 | 0.977 | 0.0692 | 0.052 | 0.98 | 0.952 | 0.0847 | 0.0832 | 0.0451 | 0.0984 | 0.0347 | -0.0655 | fitness (S. aureus Newman [1]; first compound 0.375 µg/mL, partner 0.1875 µg/mL, one replicate): ≥ 1; fitness (S. aureus Newman [1]; first compound 0.375 µg/mL, partner 0.375 µg/mL, one replicate): ≥ 1; fitness (S. aureus Newman [1]; first compound 0.375 µg/mL, partner 0.75 µg/mL, one replicate): ≥ 1; fitness (S. aureus Newman [1]; first compound 0.5 µg/mL, partner 0.1875 µg/mL): 0.991; fitness (S. aureus Newman [1]; first compound 0.5 µg/mL, partner 0.375 µg/mL): 0.981; fitness (S. aureus Newman [1]; first compound 0.5 µg/mL, partner 0.75 µg/mL): 0.999; fitness (S. aureus Newman [1]; first compound 0.75 µg/mL, partner 0.1875 µg/mL, one replicate): ≥ 1; fitness (S. aureus Newman [1]; first compound 0.75 µg/mL, partner 0.375 µg/mL, one replicate): ≥ 1; fitness (S. aureus Newman [1]; first compound 0.75 µg/mL, partner 0.75 µg/mL, one replicate): ≥ 1; fitness (S. aureus Newman [1]; first compound 1 µg/mL, partner 0.1875 µg/mL): 0.988; fitness (S. aureus Newman [1]; first compound 1 µg/mL, partner 0.375 µg/mL): 0.996; fitness (S. aureus Newman [1]; first compound 1 µg/mL, partner 0.75 µg/mL): ≥ 1; fitness (S. aureus Newman [1]; first compound 1.5 µg/mL, partner 0.1875 µg/mL, one replicate): 0.261; fitness (S. aureus Newman [1]; first compound 1.5 µg/mL, partner 0.375 µg/mL, one replicate): 0.0474; fitness (S. aureus Newman [1]; first compound 1.5 µg/mL, partner 0.75 µg/mL, one replicate): 0.0659; fitness (S. aureus Newman [1]; first compound 2 µg/mL, partner 0.375 µg/mL): ≥ 1; fitness (S. aureus Newman [1]; first compound 2 µg/mL, partner 0.75 µg/mL): ≥ 1; fitness (S. pneumoniae D39V [2]; first compound 4 µg/mL, partner 0.125 µg/mL): 0.922; fitness (S. pneumoniae D39V [2]; first compound 8 µg/mL, partner 0.125 µg/mL): 0.925
2 | CNC(C)C1CCC(N)C(OC2C(N)CC(N)C(OC3OCC(C)(O)C(NC)C3O)C2O)O1 (stereo not drawn) [Gentamicin] + Cn1nnc(-c2ccc(-c3ccc(N4C[C@H](CO)OC4=O)cc3F)cn2)n1 [Tedizolid] | 0.933 | 0.964 | 0.687 | 0.259 | 0.104 | 0.942 | 0.964 | 0.211 | 0.105 | 0.933 | 0.954 | 0.242 | 0.0993 | 0.228 | 0.0633 | 0.0667 | -0.112 | fitness (S. aureus Newman [1]; first compound 0.375 µg/mL, partner 0.0625 µg/mL): 0.965; fitness (S. aureus Newman [1]; first compound 0.375 µg/mL, partner 0.125 µg/mL): 0.862; fitness (S. aureus Newman [1]; first compound 0.375 µg/mL, partner 0.25 µg/mL): 0.176; fitness (S. aureus Newman [1]; first compound 0.5 µg/mL, partner 0.0625 µg/mL): 0.938; fitness (S. aureus Newman [1]; first compound 0.5 µg/mL, partner 0.125 µg/mL): 0.934; fitness (S. aureus Newman [1]; first compound 0.5 µg/mL, partner 0.25 µg/mL): 0.605; fitness (S. aureus Newman [1]; first compound 0.75 µg/mL, partner 0.0625 µg/mL): 0.969; fitness (S. aureus Newman [1]; first compound 0.75 µg/mL, partner 0.125 µg/mL): 0.771; fitness (S. aureus Newman [1]; first compound 0.75 µg/mL, partner 0.25 µg/mL): 0.131; fitness (S. aureus Newman [1]; first compound 1 µg/mL, partner 0.0625 µg/mL): 0.949; fitness (S. aureus Newman [1]; first compound 1 µg/mL, partner 0.125 µg/mL): 0.907; fitness (S. aureus Newman [1]; first compound 1.5 µg/mL, partner 0.25 µg/mL): 0.15; fitness (S. aureus Newman [1]; [6]): 0.979; fitness (S. aureus Newman [1]; [7]): 0.905; fitness (S. aureus Newman [1]; [8]): 0.702
